The results in this text go back to patent US9988430B2, “Stable GLP-1 based GLP-1/glucagon receptor co-agonists” (Novo Nordisk A/S, priority 2014, dated 2018).

In this assay the target is T1, human GLP-1 receptor (Homo sapiens, UniProt P43220).
T1 construct: expressed in transfected cells; host or cells: membranes of BHK cells, parent line BHKTS13, clone FCW467-12A
Briefly: Assay (II)(a): GLP-1 receptor binding, [125I]GLP-1 displacement, SPA on BHK membranes. The note with it: displacement of [125I]GLP-1, membranes with human GLP-1 receptor; read-out: IC50 GLP-1R. In short, it runs like this: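 Membranes from BHK cells expressing human GLP-1 receptor with WGA SPA beads, [125I]GLP-1(7-36)NH2 (480 pM added solution) and compound in HEPES pH 7.4 buffer with EGTA, MgCl2, Tween 20. Incubated 2 h at 30° C; SPA counts fitted by non-linear regression to IC50 in nM.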
Background: Loss of bound radioactivity is the signal in a displacement assay; it reports binding, not function.

*1 amine or outer side, *2 acyl side, *3 side chain or, on linkers, in order; H or OH if unused. Where a SMILES comes first, the peptide text is derived from it. Bridges are numbered along the chain shown (N, C = ends). Roman numbers before positions name the chains, in order. [ ]: non-standard residue; d: D form. The star is where a group is joined. C18 diacid = O=C(O)CCCCCCCCCCCCCCCCC(=O)*; γGlu = O=C(O)[C@H](CCC(=O)[*:2])N[*:1]; Desaminohistidyl = O=C(CCc1c[nH]cn1)*; Aib = CC(C)(N)C(=O)O

T1 sequence (P43220 24-463): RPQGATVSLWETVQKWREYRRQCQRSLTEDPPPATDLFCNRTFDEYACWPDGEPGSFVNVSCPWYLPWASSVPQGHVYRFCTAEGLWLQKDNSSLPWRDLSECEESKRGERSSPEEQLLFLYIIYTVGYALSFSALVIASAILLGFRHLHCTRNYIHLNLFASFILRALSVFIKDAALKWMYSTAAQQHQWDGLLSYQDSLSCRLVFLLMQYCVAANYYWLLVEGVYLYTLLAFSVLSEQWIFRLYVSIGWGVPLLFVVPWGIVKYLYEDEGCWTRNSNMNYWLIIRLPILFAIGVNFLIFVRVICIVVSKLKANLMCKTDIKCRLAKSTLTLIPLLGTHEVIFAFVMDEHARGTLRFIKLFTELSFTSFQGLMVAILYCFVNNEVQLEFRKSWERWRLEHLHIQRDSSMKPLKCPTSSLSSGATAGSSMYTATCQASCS

The term IC50 denotes the concentration that gives 50% inhibition. In the case of `CC[C@H](C)[C@H](NC(=O)[C@H](Cc1ccccc1)NC(=O)[C@H](CCC(=O)O)NC(=O)[C@H](CCCNC(=N)N)NC(=O)[C@H](C)NC(=O)[C@H](C)NC(=O)[C@H](CCC(N)=O)NC(=O)[C@H](CCC(=O)O)NC(=O)[C@H](CCC(=O)O)NC(=O)[C@H](CC(C)C)NC(=O)[C@H](Cc1ccc(O)cc1)NC(=O)[C@H](CCCCN)NC(=O)[C@H](CO)NC(=O)[C@@H](NC(=O)[C@H](CC(=O)O)NC(=O)[C@H](CO)NC(=O)[C@@H](NC(=O)[C@H](Cc1ccccc1)NC(=O)[C@@H](NC(=O)CNC(=O)[C@H](Cc1c[nH]cn1)NC(=O)C(C)(C)NC(=O)CCc1c[nH]cn1)[C@@H](C)O)[C@@H](C)O)C(C)C)C(=O)N[C@@H](C)C(=O)N[C@@H](Cc1c[nH]c2ccccc12)C(=O)N[C@@H](CC(C)C)C(=O)N[C@@H](CC(C)C)C(=O)N[C@@H](CCCCNC(=O)CNC(=O)[C@H](CO)NC(=O)[C@H](CCC(=O)O)NC(=O)CNC(=O)[C@H](CO)NC(=O)CC[C@H](NC(=O)CC[C@H](NC(=O)CCCCCCCCCCCCCCCCC(=O)O)C(=O)O)C(=O)O)C(=O)N[C@H](C(N)=O)[C@@H](C)O` [Example 3, N^ε34-[2-[[(2S)-2-[[(2S)-4-carboxy-2-[[2-[[(2S)-2-[[(4S)-4-carboxy-4-[[(4S)-4-carboxy-4-(17-carboxyheptadecanoylamino)butanoyl]amino]butanoyl]amino]-3-hydroxypropanoyl]amino]acetyl]amino]butanoyl]amino]-3-hydroxypropanoyl]amino]acetyl]-[Imp7,Aib8,His9,Lys18,Glu22,Arg26,Leu33,Thr35]-GLP-1-(7-35)-peptide amide] (I: Desaminohistidyl-[Aib]HGTFTSDVSKYLEEQAAREFIAWLLKT-NH2 / II: {C18 diacid-γGlu-γGlu}-SGESG; amide I:27-II:C), the IC50 is 400 pM.
